Patent US5500410A, “Substituted alkylamide derivatives of teicoplanin” (Gruppo Lepetit S.p.A., priority 1989, dated 1996)

How the values were obtained:
Strep. pyogenes C 203 = test: In vivo test in mice septicemically infected with Strep. pyogenes C 203; settings: Strep. pyogenes C 203 septicemia
From the text: The ED50 values (mg/kg) of representative compounds of the invention in in vivo tests in mice septicemically infected with Strep. pyogenes. C 203, obtained according to the procedure described by V. Arioli et al. (Journal of Antibiotics 29, 511; 1976) are given in table III.

[1] = system: Pseudomonas aeruginosa ATCC 10145; test: In vitro MIC, two-fold dilution in microtiter; assay type: cell-based; settings: for MIC Pseudomonas aeruginosa ATCC 10145: 18-24 h at 37° C., inoculum about 10^4 CFU/ml
Protocol: (§1) Broth cultures are diluted enough so that the final inecuium is about 10^4 colony forming units/ml (CFU/ml).

[2] = system: Proteus vulgaris X19H ATCC 881; test: In vitro MIC, two-fold dilution in microtiter; assay type: cell-based; settings: 18-24 h at 37° C., inoculum about 10^4 CFU/ml
Protocol: as §1

[3] = system: Staphylococcus haemolyticus L 602; test: In vitro MIC, two-fold dilution in microtiter; assay type: cell-based; settings: 18-24 h at 37° C., inoculum about 10^4 CFU/ml
Protocol: as §1

[4] = system: Streptococcus pyogenes C 203; test: In vitro MIC, two-fold dilution in microtiter; assay type: cell-based; settings: 18-24 h at 37° C., inoculum about 10^4 CFU/ml
Protocol: as §1

[5] = system: Streptococcus faecalis ATCC 7080; test: In vitro MIC, two-fold dilution in microtiter; assay type: cell-based; settings: 18-24 h at 37° C., inoculum about 10^4 CFU/ml
Protocol: as §1

[6] = system: Escherichia coli SKF 12140; test: In vitro MIC, two-fold dilution in microtiter; assay type: cell-based; settings: 18-24 h at 37° C., inoculum about 10^4 CFU/ml
Protocol: as §1

[7] = system: Streptococcus pneumoniae UC 41; test: In vitro MIC, two-fold dilution in microtiter; assay type: cell-based; settings: 18-24 h at 37° C., inoculum about 10^4 CFU/ml
Protocol: as §1

[8] = system: Staphylococcus aureus TOUR; test: In vitro MIC, two-fold dilution in microtiter; assay type: cell-based; settings: 18-24 h at 37° C., inoculum about 10^4 CFU/ml
Protocol: as §1

[9] = system: Staphylococcus epidermidis ATCC 12228; test: In vitro MIC, two-fold dilution in microtiter; assay type: cell-based; settings: 18-24 h at 37° C., inoculum about 10^4 CFU/ml
Protocol: as §1

Compound	ED50 p.o. (Strep. pyogenes C 203)	ED50 s.c. (Strep. pyogenes C 203) [mg/kg]	MIC Pseudomonas aeruginosa ATCC 10145 [1] [microgram/ml]	MIC Proteus vulgaris X19H ATCC 881 [2] [microgram/ml]	MIC Staphylococcus haemolyticus L 602 [3] [microgram/ml]	MIC Streptococcus pyogenes C 203 [4] [microgram/ml]	MIC Streptococcus faecalis ATCC 7080 [5] [microgram/ml]	MIC Escherichia coli SKF 12140 [6] [microgram/ml]	MIC Streptococcus pneumoniae UC 41 [7] [microgram/ml]	MIC Staphylococcus aureus TOUR [8] [microgram/ml]	MIC Staphylococcus epidermidis ATCC 12228 [9] [microgram/ml]	MIC against Pseudomonas aeruginosa (comparison compounds) ([1]; strain not specified ("the same microorganism")) [microgram/ml]
CC(=O)N[C@H]1[C@H](OC2c3ccc(c(Cl)c3)Oc3cc4cc(c3O[C@@H]3O[C@H](CO)[C@@H](O)[C@H](O)[C@H]3NC(=O)CCCCCCC(C)C)Oc3ccc(cc3Cl)CC3NC(=O)C(N)c5ccc(O)c(c5)Oc5cc(O)cc(c5)C(NC3=O)C(=O)NC4C(=O)NC3C(=O)NC2C(=O)NC(C(=O)NCCNCCN)c2cc(O)cc(O[C@H]4O[C@H](CO)[C@@H](O)[C@H](O)[C@@H]4O)c2-c2cc3ccc2O)O[C@H](CO)[C@@H](O)[C@@H]1O (some centres unmarked) [Compound 2]	about 60 mg/kg	0.09										
CC(=O)NC1C(OC2c3ccc(c(Cl)c3)Oc3cc4cc(c3OC3OC(CO)C(O)C(O)C3NC(=O)CCCCCCC(C)C)Oc3ccc(cc3Cl)CC3NC(=O)C(N)c5ccc(O)c(c5)Oc5cc(O)cc(c5)C(NC3=O)C(=O)NC4C(=O)NC3C(=O)NC2C(=O)NC(C(=O)NCCCNCCCNCCCN)c2cc(O)cc(OC4OC(CO)C(O)C(O)C4O)c2-c2cc3ccc2O)OC(CO)C(O)C1O (centres unmarked) [Compound 9]	about 80 mg/kg	0.06	64	> 128	0.12	0.06	0.12	> 128	0.12	0.12	0.06	
NCCNCCNC(=O)C1NC(=O)C2NC(=O)C(NC(=O)C3NC(=O)C4NC(=O)C(Cc5ccc(c(Cl)c5)Oc5cc3cc(c5O)Oc3ccc(cc3Cl)C2O)NC(=O)C(N)c2ccc(O)c(c2)Oc2cc(O)cc4c2)c2ccc(O)c(c2)-c2c(O)cc(O)cc21 (centres unmarked) [Compound 21]			64	64	0.12	0.12	0.12	8	0.12	0.06	0.06	
NCCNCCCNCCNC(=O)C1NC(=O)C2NC(=O)C(NC(=O)C3NC(=O)C4NC(=O)C(Cc5ccc(c(Cl)c5)Oc5cc3cc(c5O)Oc3ccc(cc3Cl)C2O)NC(=O)C(N)c2ccc(O)c(c2)Oc2cc(O)cc4c2)c2ccc(O)c(c2)-c2c(O)cc(O)cc21 (centres unmarked) [Compound 24]			64	128	0.06	0.06	0.12	4	0.12	0.06	0.06	
NCCCN1CCN(CCCNC(=O)C2NC(=O)C3NC(=O)C(NC(=O)C4NC(=O)C5NC(=O)C(Cc6ccc(c(Cl)c6)Oc6cc4cc(c6O)Oc4ccc(cc4Cl)C3O)NC(=O)C(N)c3ccc(O)c(c3)Oc3cc(O)cc5c3)c3ccc(O)c(c3)-c3c(O)cc(O)cc32)CC1 (centres unmarked) [Compound 30]			16	128	0.12	0.06	0.12	4	0.12	0.06	0.06	
CC(=O)N[C@H]1[C@H](OC2c3ccc(c(Cl)c3)Oc3cc4cc(c3O)Oc3ccc(cc3Cl)CC3NC(=O)C(N)c5ccc(O)c(c5)Oc5cc(O)cc(c5)C(NC3=O)C(=O)NC4C(=O)NC3C(=O)NC2C(=O)NC(C(=O)NCCCNCCCCNCCCN)c2cc(O)cc(O[C@H]4O[C@H](CO)[C@@H](O)[C@H](O)[C@@H]4O)c2-c2cc3ccc2O)O[C@H](CO)[C@@H](O)[C@@H]1O (some centres unmarked) [Compound 39]			128	> 128	0.12	0.12	0.5	32	0.5	0.25	0.06	
CC(=O)N[C@H]1[C@H](OC2c3ccc(c(Cl)c3)Oc3cc4cc(c3O)Oc3ccc(cc3Cl)CC3NC(=O)C(N)c5ccc(O)c(c5)Oc5cc(O)cc(c5)C(NC3=O)C(=O)NC4C(=O)NC3C(=O)NC2C(=O)NC(C(=O)NCCCNCCCCNCCCN)c2cc(O)cc(O)c2-c2cc3ccc2O)O[C@H](CO)[C@@H](O)[C@@H]1O (some centres unmarked) [Compound 44]			16	128	0.06	0.06	0.25	4	0.25	0.12	0.06	
CN(C)CCCN(CCCN)CCCNC(=O)C1NC(=O)C2NC(=O)C(NC(=O)C3NC(=O)C4NC(=O)C(Cc5ccc(c(Cl)c5)Oc5cc3cc(c5O)Oc3ccc(cc3Cl)C2O)NC(=O)C(N)c2ccc(O)c(c2)Oc2cc(O)cc4c2)c2ccc(O)c(c2)-c2c(O)cc(O)cc21 (centres unmarked) [Compound 51]			32	128	0.12	0.06	0.25	8	0.12	0.12	0.06	
CCN(CC)CCN(CCCN)CCCNC(=O)C1NC(=O)C2NC(=O)C(NC(=O)C3NC(=O)C4NC(=O)C(Cc5ccc(c(Cl)c5)Oc5cc3cc(c5O)Oc3ccc(cc3Cl)C2O)NC(=O)C(N)c2ccc(O)c(c2)Oc2cc(O)cc4c2)c2ccc(O)c(c2)-c2c(O)cc(O)cc21 (centres unmarked) [Compound 52]			128	> 128	0.12	0.12	0.12	32	0.12	0.12	0.03	
CN(C)CCCN1CCN(C(=O)C2NC(=O)C3NC(=O)C(NC(=O)C4NC(=O)C5NC(=O)C(Cc6ccc(c(Cl)c6)Oc6cc4cc(c6O)Oc4ccc(cc4Cl)C3O)NC(=O)C(N)c3ccc(O)c(c3)Oc3cc(O)cc5c3)c3ccc(O)c(c3)-c3c(O)cc(O)cc32)CC1 (centres unmarked) [Compound 53]			32	128	0.06	0.06	0.12	8	0.12	0.06	0.06	
NCCCNCCCCCCCCCNCCCNC(=O)C1NC(=O)C2NC(=O)C(NC(=O)C3NC(=O)C4NC(=O)C(Cc5ccc(c(Cl)c5)Oc5cc3cc(c5O)Oc3ccc(cc3Cl)C2O)NC(=O)C(N)c2ccc(O)c(c2)Oc2cc(O)cc4c2)c2ccc(O)c(c2)-c2c(O)cc(O)cc21 (centres unmarked) [Compound 54]			128	> 128	2	0.03	2	> 128	0.12	0.5	0.12	
NCCCNCCCCCCCCCCNCCCNC(=O)C1NC(=O)C2NC(=O)C(NC(=O)C3NC(=O)C4NC(=O)C(Cc5ccc(c(Cl)c5)Oc5cc3cc(c5O)Oc3ccc(cc3Cl)C2O)NC(=O)C(N)c2ccc(O)c(c2)Oc2cc(O)cc4c2)c2ccc(O)c(c2)-c2c(O)cc(O)cc21 (centres unmarked) [Compound 55]			> 128	> 128	1	0.12	1	> 128	0.12	1	0.12	
teicoplanin [reference compound]												≥ 32
